{"source": "patent US20090306612A1", "about": "“ABSORBENT ARTICLE” (SCA HYGIENE PRODUCTS AB, priority 2006, published 2009)", "assay_type_in_all_cases": "cell-based", "key": {"P. mirabilis": {"tested_on": "P. mirabilis", "test": "Bacterial growth in absorbent cores (method 4), P. mirabilis", "description": "(§1) 16 ml (corresponding to a maximum absorption capacity of a test specimen according to method 1) of test liquid 1 containing the bacteria were added to a test specimen placed in plastic tubs, and a lid was fitted on the tubs. The tubs were turned upside down and incubated in a warm cabinet at 35° C. After incubation for 0, 6 and 12 hours, the test samples were placed in a plastic bag with peptone water and the content was homogenized (agitated and worked up) in a stomacker for 3 minutes. The homogenate was diluted in dilution tubes with peptone water and a microbiological culture was spread on agar plates. Slanetz Bartley agar was used for E. faecalis, and Drigalski agar for E. coli and P. mirabilis. The specimens were incubated at 35° C. for 1-2 days before the colonies were counted and the log CFU/ml calculated. Control tests were also carried out with absorbent cores without NaCl.\n(§2) Bacteria were cultured in nutrient broth and diluted to the desired concentration of about Log 3.3 in test liquid 1 (method 4). Absorbent test specimens were produced according to method 1. […] The bacterial growth was measured according to method 4.\n(§3) Absorbent cores were produced according to method 1. […] The bacterial growth of E. coli, P. mirabilis and E. faecalis was measured after 0, 6 and 12 hours according to method 4. […]"}, "Proteus mirabilis": {"tested_on": "Proteus mirabilis", "test": "Ammonia formation in absorbent cores (method 3)", "conditions": "Example 2, FIG. 5; specimen containing 29% by weight of NaCl; after 6 and 8 hours", "description": "Absorbent test specimens were produced according to method 1. A bacterial suspension of Proteus mirabilis was cultured in nutrient solution at 30° C. overnight. The grafted cultures were diluted with test liquid 1 and the quantity of bacteria was determined. The final culture contained approximately 10^5 organisms per ml of test liquid. The absorbent core was placed in a plastic tub and test liquid 1 containing bacteria was added to the absorbent core, after which the container was incubated at 35° C. for 4, 6 and 8 hours, and then the specimens were removed from the container using a hand pump and a so-called Drager tube. The ammonia content was obtained as a color change on a scale graduated in ppm or percent by volume.\nAbsorbent test specimens were produced according to method 1. 16 ml, maximum absorption capacity, of test liquid 1 containing bacteria were added to a test specimen. 29 (high), 22 (medium) and 12 (low) % by weight of NaCl (% dry) and 22 (medium) % by weight of CaCl2 (% dry) were added to the core. The quantity of developed ammonia was measured according to method 3 after 6 and 8 hours. […]\nAbsorbent test specimens were produced according to method 1. […] The quantity of added pH-reducing substance was 5% by weight of the pulp. […] The quantity of developed ammonia was measured according to method 3 after 6 and 8 hours."}, "E. faecalis": {"tested_on": "E. faecalis", "test": "Bacterial growth in absorbent cores (method 4), E. faecalis", "description": "as §1, §2, §3"}, "E. coli": {"tested_on": "E. coli", "test": "Bacterial growth in absorbent cores (method 4), E. coli", "description": "as §1, §2, §3"}, "[1]": {"conditions": "3% added salt (% wet) = 29% by weight (% dry), NaCl high in FIG. 4, 12 hours, 35° C., 16 ml test liquid 1 (maximum load), start about Log 3.3, method counts log CFU/ml"}, "[2]": {"conditions": "Example 1, FIG. 4, 29, 22 and 12% by weight NaCl (% dry), after 6 and 12 hours, inhibition better with higher salt content"}}, "data": [{"molecule": "[Cl-].[Na+]", "note": "[NaCl]", "values": [{"measurement": "growth of P. mirabilis after 12 hours", "setting": "P. mirabilis; [1]", "result": "< 5.5", "unit": "log"}, {"measurement": "growth of P. mirabilis compared with the control tests", "setting": "P. mirabilis; [2]", "result": "lower"}, {"measurement": "development of NH3, ranking among the specimens", "setting": "Proteus mirabilis", "result": "lowest development of NH3"}, {"measurement": "growth of E. faecalis after 12 hours", "setting": "E. faecalis; [1]", "result": "< 5.5", "unit": "log"}, {"measurement": "growth of E. faecalis compared with the control tests", "setting": "E. faecalis; [2]", "result": "lower"}, {"measurement": "growth of E. coli after 12 hours", "setting": "E. coli; [1]", "result": "< 5.5", "unit": "log"}, {"measurement": "growth of E. coli compared with the control tests", "setting": "E. coli; [2]", "result": "lower"}]}]}
